Each molecule was assayed against T1, purified human placenta 20S proteasome (Homo sapiens, UniProt P28074) (assay: Inhibition of the chymotrypsin-like activity of the 20S proteasome (Suc-LLVY-AMC hydrolysis)). Settings: Suc-LLVY-AMC substrate, 60 min preincubation at room temperature, Table 1.
T1 construct: 1 μl purified human placenta 20S proteasome; tissue Diabetes Forschungsinstitut, Düsseldorf, Germany; host or cells: human placenta
Format: biochemical
From the text: It is based on the hydrolysis of the fluorogenic peptide Suc-LLVY-AMC (Succinyl-leucine-leucine-valine-tyrosine-7-amino-4-methyl-coumarin), which is cleaved exclusively at the Y-AMC bond by the 20S proteasome. Hydrolysis of this peptide is accompanied by an increase in fluorescence intensity [λex (excitation wavelength): 355 nm; λem (emission wavelength): 460 nm] due to release of the internally quenched […] fluorescence that accompanies diffusion apart of the hydrolysis product Suc-LLVY.
2 μl of a 1 mM solution of a test compound in DMSO (dimethylsulfoxide, 20 μM final concentration in the well) are preincubated for 60 min at room temperature in black 96-well microtiter plates together with a mixture of 1 μl purified human placenta 20S proteasome (Diabetes Forschungsinstitut, Düsseldorf, Germany; about 100 ng proteasome, depending on the proteasome preparation) and 47 μl buffer-Ca [5 mM CaCl2, 20 mM Tris/HCl (Tris-(hydroxymethyl)-amino-methane hydrochloride) pH 8.0]. 3 μl of a 2.67 mM solution of Suc-LLVY-AMC (Bachem, Switzerland) in DMSO (80 μM final concentration in the well) and 47 μl buffer-Ca are mixed and added. The resulting mixture is incubated for 3-24 h at 37° C. If desired, proteolysis of the substrate can be stopped by addition of 50 μl stop solution (100 mM monochloroacetic acid, 130 mM NaOH, 100 mM acetic acid, pH=4.3). The fluorescence is monitored with a FLUOROSKAN ASCENT™ microtiter plate reader.
To each measure series two control experiments have to be carried out:
1.) 0% value: 2 μl DMSO are used in the above described assay instead of 2 μl of a 1 mM solution of a test compound in DMSO and 48 μl buffer-Ca instead of a mixture of 47 μl buffer-Ca and 1 μl purified proteasome.
2.) 100% value: in the above described assay 2 μl DMSO are used instead of 2 μl of a 1 mM solution of the test compound in DMSO.
The IC50 value is defined as that concentration of a compound at which the remaining activity is 50%.

Structure (SMILES)	IC50 [nM]
COc1ccc(CNC(=O)[C@@H](NC(=O)[C@H](NCc2cc(OC)c(OC)c(OC)c2)[C@H](O)[C@H](Cc2ccccc2)NC(=O)[C@@H](NC(=O)OCc2ccccc2)C(C)(C)C)C(C)C)c(O)c1 [Example 6, {(S)-1-[(1S,2R,3R)-1-Benzyl-2-hydroxy-3-[(S)-1-(2-hydroxy-4-methoxy-benzylcarbamoyl)-2-methyl-propylcarbamoyl]-3-(3,4,5-trimethoxy-benzylamino)-propylcarbamoyl]-2,2-dimethyl-propyl}-carbamic acid benzyl ester]	50
COc1ccc(CNC(=O)[C@@H](NC(=O)[C@H](NCc2cc(OC)c(OC)c(OC)c2)[C@H](O)[C@H](Cc2ccccc2)NC(=O)[C@@H](NC(=O)OC(C)(C)C)C(C)(C)C)C(C)C)c(O)c1 [Example 11, {(S)-1-[(1S,2R,3R)-1-Benzyl-2-hydroxy-3-[(S)-1-(2-hydroxy-4-methoxy-benzylcarbamoyl)-2-methyl-propylcarbamoyl]-3-(3,4,5-trimethoxy-benzylamino)-propylcarbamoyl]-2,2-dimethyl-propyl}-carbamic acid tert-butyl ester]	1040
COc1cccc(CN[C@@H](C(=O)N[C@H](C(=O)NCc2ccc(OC)cc2O)C(C)C)[C@H](O)[C@H](Cc2ccccc2)NC(=O)[C@@H](NC(=O)OCc2ccccc2)C(C)(C)C)c1 [Example 4, {(S)-1-[(1S,2R,3R)-1-Benzyl-2-hydroxy-3-[(S)-1-(2-hydroxy-4-methoxy-benzylcarbamoyl)-2-methyl-propylcarbamoyl]-3-(3-methoxy-benzylamino)-propylcarbamoyl]-2,2-dimethyl-propyl}-carbamic acid benzyl ester]	1500

Reference: patent US20060205673A1, “2-Amino-3-hydroxy-4-tert-leucyl-amino-5-phenyl-pentanoic acid amide derivatives” (priority 2000, published 2006)
